Patent US20080176905A1, “Polymorphic forms of rosiglitazone hydrobromide and processes for preparation thereof” (priority 2007, published 2008)
Where a name gives a salt, the structure may show the parent alone.

How the values were obtained:
[1] = Crystalline stability of Form I under pressure, grinding and heating (XRD of resulting material)
[2] = Water content by Karl Fisher (KF) analysis; assay type: physicochemical; conditions: for Water content, as measured by KF: general statement in description, hydrobromide
From the text: As used herein, the term “water content” refers to the content of water based upon the Loss on Drying method (the “LOD” method) as described in UPS 29-NF 24, official Aug. 1, 2006, Physical Test and Determinations, <731> LOSS ON DRYING or in Pharmacopeial Forum, Vol. 24, No. 1, p. 5438 (January-February 1998), the Karl Fisher assay for determining water content or thermogravimetric analysis (TGA). All percentages herein are by weight unless otherwise indicated. As used herein, the term “monohydrate” when used in reference to Rosiglitazone hydrobromide describes Rosiglitazone hydrobromide having water content of between about 3.9-4.1% w/w. As used herein, the term “hemi-hydrate” when used in reference to Rosiglitazone hydrobromide describes Rosiglitazone hydrobromide having a water content of about 1.8-2.1% w/w. As used herein, the term “quarter-hydrate” when used in reference to Rosiglitazone hydrobromide describes Rosiglitazone hydrobromide having a water content of about 0.7-1.0% w/w.
Water content was determined by Karl Fisher analysis using Mettler Toledo DL 38 Karl Fisher Titrator.

[3] = Polymorphic stability of Form I in compacted tablet with excipients; assay type: physicochemical; conditions: compacted with lactose monohydrate, sucrose and avicel
From the text: Solid pharmaceutical compositions of Form I and the following excipients were compacted into a dosage form like a tablet: lactose monohydrate, sucrose and avicel. The polymorphic stability of Rosiglitazone form I in such tablet was examined and determined to be stable.

[4] = relative humidity 100%
[5] = Weight loss on drying measured by TGA; assay type: physicochemical; conditions: for Weight loss, as measured by TGA: general statement in description, hydrobromide
Method: TGA analysis was preformed using Mettler 3M with Mettler TG 50 thermobalance. The weight of the samples was about 10 mg; the samples were scanned at a rate of 10° C./min from 25° C. to 200 or 250° C. The oven was constantly purged with nitrogen gas at a flow rate of 40 ml/min. Standard alumina crucibles covered by lids with 1 hole were used.

[6] = 0 % RH, room temperature, 7 days
[7] = 100 % RH, room temperature, 7 days
[8] = listed as Rosiglitazone hydrobromide Form I
[9] = listed as Rosiglitazone hydrobromide Form II

Stability under extreme heating conditions ([1]; 80° C. for 30 minutes)	Stability under high pressure and grinding conditions ([1]; high pressure and grinding)	KF (water content) [2, 6]	KF (water content) [2, 7]	KF (water content) ([2]; As is)	Water content, as measured by KF [2, 8]	Water content ([2]; relative humidity of about 0%, corresponds to a quarter-hydrate)	Water content ([2]; relative humidity of about 50%, corresponds to a hemihydrate)	Hydrate obtained on maintaining at relative humidity ([2]; relative humidity of about 100%)	Polymorphic stability in tablet [3]	Stability under extreme relative humidity conditions [4]	TGA (weight loss on drying) [5, 6]	TGA (weight loss on drying) [5, 7]	TGA (weight loss on drying) ([5]; As is)	Weight loss, as measured by TGA [5, 8]	Water content, as measured by KF [2, 9]	Weight loss, as measured by TGA [5, 9]	Compound
stable	stable	1%	4.1%	4.1%	1.0-4.1 % by weight	about 1%	about 2%	a monohydrate is obtained	stable	stable	0.7	3.9	4.1	0.7-4.1 % by weight	–	–	CN(CCOc1ccc(CC2SC(=O)NC2=O)cc1)c1ccccn1 (centres unmarked) [Form I, Rosiglitazone hydrobromide]
–	–	–	–	–	–	–	–	–	–	–	–	–	–	–	about 4.1 % by weight	about 3.9 % by weight	CN(CCOc1ccc(CC2SC(=O)NC2=O)cc1)c1ccccn1 (centres unmarked) [Form II, Rosiglitazone hydrobromide]
